Drawing on EP0678100B1, “SYNTHETIC AMPHIPATHIC PEPTIDES WITH ANTIMICROBIAL ACTIVITY” (PIONEER HI-BRED INTERNATIONAL, INC., priority 1993, dated 1998), this text covers MIC and MCIC for nine compounds.

Experiment [1] concerns F. graminearum.
Experiment [2] concerns F. moniliforme. The settings on record: for MCIC: Minimum Complete Inhibitory Concentration, achieving a score of 3 or greater.
Experiment [3] has as its system A. flavus. The settings on record: for MCIC: Minimum Complete Inhibitory Concentration, achieving a score of 3 or greater.
[4] abbreviates: F. graminearum, minimum inhibitory concentration, achieving a score of 1 or greater.
The mark [5] stands for this setting: F. moniliforme, minimum inhibitory concentration, achieving a score of 1 or greater.
The mark [6] stands for this setting: A. flavus, minimum inhibitory concentration, achieving a score of 1 or greater.

Values after ≈ are worked out from the molar mass of the structure shown. Like-named read-outs stand apart in the source and are kept apart here. Residues, ends and D or L forms follow the SMILES beside them. No end group written: not given here. A value given as a limit tells only on which side of the number the result lay.

Turning to `CC[C@H](C)[C@H](NC(=O)CNC(=O)[C@@H](NC(=O)[C@@H](NC(=O)[C@@H](NC(=O)CNC(=O)[C@@H]1CCCN1C(=O)CNC(=O)[C@H](C)NC(=O)[C@H](CCCCN)NC(=O)[C@@H](NC(=O)[C@H](CCCCN)NC(=O)[C@H](CCCCN)NC(=O)[C@@H]1CCCN1C(=O)[C@@H](NC(=O)[C@H](Cc1c[nH]cn1)NC(=O)[C@H](CCCCN)NC(=O)[C@@H](NC(=O)[C@H](C)NC(=O)[C@H](CCCCN)NC(=O)[C@H](CCC(=O)O)NC(=O)[C@@H](NC(=O)[C@H](CCCCN)NC(=O)[C@@H](N)CCCCN)[C@@H](C)CC)[C@@H](C)CC)[C@@H](C)CC)[C@@H](C)CC)C(C)C)[C@@H](C)O)[C@@H](C)CC)C(=O)N[C@@H](C)C(=O)N[C@@H](Cc1c[nH]cn1)C(=O)N[C@@H](C)C(=O)N[C@@H](CCCCN)C(=O)N[C@@H](CO)C(=O)N[C@@H](CCC(N)=O)C(=O)N[C@@H](CC(C)C)C(=O)N[C@@H](Cc1c[nH]c2ccccc12)C(=O)O` [Peptide 1] (H-KKIEKAIKHIPKKIKAGPGVTIGIAHAKSQLW-OH), the results for the MIC in experiment [1] (setting [4]) and in experiment [2] (setting [5]) were 0.017 ng/mL (≈ 0.00487 nM) and 17, respectively.
Taken in the same sequence, the figures for `CC[C@H](C)[C@H](NC(=O)CNC(=O)[C@@H](NC(=O)[C@@H](NC(=O)[C@@H](NC(=O)CNC(=O)[C@@H]1CCCN1C(=O)CNC(=O)[C@H](C)NC(=O)[C@H](CCCCN)NC(=O)[C@H](Cc1c[nH]c2ccccc12)NC(=O)[C@H](Cc1c[nH]cn1)NC(=O)[C@H](CCCNC(=N)N)NC(=O)[C@H](C)NC(=O)[C@H](CC(C)C)NC(=O)[C@H](C)NC(=O)[C@H](CCCNC(=N)N)NC(=O)[C@H](CC(C)C)NC(=O)[C@H](C)NC(=O)[C@H](CCCCN)NC(=O)[C@H](CCCCN)NC(=O)[C@H](CC(C)C)NC(=O)[C@@H](N)CCCCN)C(C)C)[C@@H](C)O)[C@@H](C)CC)C(=O)N[C@@H](C)C(=O)N[C@@H](Cc1c[nH]cn1)C(=O)N[C@@H](C)C(=O)N[C@@H](CCCCN)C(=O)N[C@@H](CO)C(=O)N[C@@H](CCC(N)=O)C(=O)N[C@@H](CC(C)C)C(=O)N[C@@H](Cc1c[nH]c2ccccc12)C(=O)O` [Peptide 2] (H-KLKKALRALARHWKAGPGVTIGIAHAKSQLW-OH) were 0.014 ng/mL (≈ 0.00411 nM) and 14.
The like results for `CC[C@H](C)[C@H](NC(=O)CNC(=O)[C@@H](NC(=O)[C@@H](NC(=O)[C@@H](NC(=O)CNC(=O)[C@@H]1CCCN1C(=O)CNC(=O)[C@H](C)NC(=O)[C@H](CC(C)C)NC(=O)[C@H](C)NC(=O)[C@H](CCCNC(=N)N)NC(=O)[C@@H](NC(=O)[C@H](CCCCN)NC(=O)[C@@H](NC(=O)[C@H](CCCCN)NC(=O)[C@H](CCCCN)NC(=O)[C@@H]1CCCN1C(=O)[C@@H](NC(=O)[C@H](Cc1c[nH]cn1)NC(=O)[C@H](CCCCN)NC(=O)[C@@H](NC(=O)[C@H](C)NC(=O)[C@H](CCCCN)NC(=O)[C@H](CCC(=O)O)NC(=O)[C@@H](NC(=O)[C@H](CCCCN)NC(=O)[C@H](CCCCN)NC(=O)[C@@H](NC(=O)[C@H](C)NC(=O)[C@H](CCCNC(=N)N)NC(=O)[C@@H](N)CCC(N)=O)C(C)C)[C@@H](C)CC)[C@@H](C)CC)[C@@H](C)CC)[C@@H](C)CC)[C@@H](C)CC)C(C)C)[C@@H](C)O)[C@@H](C)CC)C(=O)N[C@@H](C)C(=O)N[C@@H](Cc1c[nH]cn1)C(=O)N[C@@H](C)C(=O)N[C@@H](CCCCN)C(=O)N[C@@H](CO)C(=O)N[C@@H](CCC(N)=O)C(=O)N[C@@H](CC(C)C)C(=O)N[C@@H](Cc1c[nH]c2ccccc12)C(=O)O` [Peptide 4] (H-QRAVKKIEKAIKHIPKKIKIRALAGPGVTIGIAHAKSQLW-OH) were, in that order, 0.013 ng/mL (≈ 0.00296 nM) and 17.
As for `CC[C@H](C)[C@H](NC(=O)CNC(=O)[C@@H](NC(=O)[C@@H](NC(=O)[C@@H](NC(=O)CNC(=O)[C@@H]1CCCN1C(=O)CNC(=O)[C@H](C)NC(=O)[C@@H](NC(=O)[C@H](C)NC(=O)[C@H](CCCNC(=N)N)NC(=O)[C@H](CCC(N)=O)NC(=O)[C@H](CC(C)C)NC(=O)[C@H](C)NC(=O)[C@H](CCCNC(=N)N)NC(=O)[C@@H](NC(=O)[C@H](CCCCN)NC(=O)[C@H](CCCNC(=N)N)NC(=O)[C@H](CCCNC(=N)N)NC(=O)[C@H](CC(C)C)NC(=O)[C@H](Cc1c[nH]c2ccccc12)NC(=O)[C@H](CCCNC(=N)N)NC(=O)[C@@H](NC(=O)[C@H](CC(C)C)NC(=O)[C@H](CCCCN)NC(=O)[C@H](CCCNC(=N)N)NC(=O)[C@@H](NC(=O)[C@H](CC(C)C)NC(=O)[C@@H](N)CCCCN)[C@@H](C)CC)[C@@H](C)CC)[C@@H](C)CC)C(C)C)C(C)C)[C@@H](C)O)[C@@H](C)CC)C(=O)N[C@@H](C)C(=O)N[C@@H](Cc1c[nH]cn1)C(=O)N[C@@H](C)C(=O)N[C@@H](CCCCN)C(=O)N[C@@H](CO)C(=O)N[C@@H](CCC(N)=O)C(=O)N[C@@H](CC(C)C)C(=O)N[C@@H](Cc1c[nH]c2ccccc12)C(=O)O` [Peptide 7] (H-KLIRKLIRWLRRKIRALQRAVAGPGVTIGIAHAKSQLW-OH), the MIC in experiment [3] (setting [6]) was found to be 40; in experiment [1], 0.01 ng/mL (≈ 0.00229 nM); in experiment [2] (setting [5]), 10.
Turning to `CC[C@H](C)[C@H](NC(=O)[C@H](C)NC(=O)[C@H](CCCNC(=N)N)NC(=O)[C@H](Cc1ccc(O)cc1)NC(=O)[C@@H](NC(=O)[C@H](CCCNC(=N)N)NC(=O)[C@@H](N)CCCNC(=N)N)[C@@H](C)CC)C(=O)N[C@@H](CCCNC(=N)N)C(=O)N[C@@H](Cc1c[nH]cn1)C(=O)N[C@H](C(=O)N1CCC[C@H]1C(=O)N[C@@H](CCCNC(=N)N)C(=O)N[C@@H](CCCNC(=N)N)C(=O)N[C@H](C(=O)N[C@@H](CCCNC(=N)N)C(=O)NCC(=O)N[C@@H](Cc1c[nH]c2ccccc12)C(=O)N[C@@H](CC(C)C)C(=O)N[C@@H](CCCNC(=N)N)C(=O)N[C@@H](CCCNC(=N)N)C(=O)N[C@H](C(=O)NCC(=O)N[C@@H](CCCNC(=N)N)C(=O)N[C@@H](CCCNC(=N)N)C(=O)N[C@H](C(=O)N[C@@H](CCC(=O)O)C(=O)N[C@@H](CCCNC(=N)N)C(=O)N[C@H](C(=O)NCC(=O)N[C@@H](CCC(N)=O)C(=O)N[C@@H](Cc1c[nH]cn1)C(=O)O)C(C)C)[C@@H](C)CC)[C@@H](C)CC)[C@@H](C)CC)[C@@H](C)CC` [Peptide 9] (H-RRIYRAIRHIPRRIRGWLRRIGRRIERVGQH-OH), the MIC amounted to 15 in experiment [3], 0.01 ng/mL (≈ 0.0025 nM) in experiment [1] (setting [4]) and 10 in experiment [2].
For `CC[C@H](C)[C@H](NC(=O)[C@H](C)NC(=O)[C@H](CCCCN)NC(=O)[C@H](CCC(=O)O)NC(=O)[C@@H](NC(=O)[C@H](CCCCN)NC(=O)[C@@H](N)CCCCN)[C@@H](C)CC)C(=O)N[C@@H](CCCCN)C(=O)N[C@@H](Cc1c[nH]cn1)C(=O)N[C@H](C(=O)N1CCC[C@H]1C(=O)N[C@@H](CCCCN)C(=O)N[C@@H](CCCCN)C(=O)N[C@H](C(=O)N[C@@H](CCCCN)C(=O)N[C@@H](CC(C)C)C(=O)N[C@@H](CCCCN)C(=O)N[C@@H](CCCCN)C(=O)N[C@@H](C)C(=O)N[C@@H](CC(C)C)C(=O)N[C@@H](CCCNC(=N)N)C(=O)N[C@@H](C)C(=O)N[C@@H](CC(C)C)C(=O)N[C@@H](C)C(=O)N[C@@H](CCCNC(=N)N)C(=O)N[C@@H](Cc1c[nH]cn1)C(=O)N[C@@H](Cc1c[nH]c2ccccc12)C(=O)N[C@@H](CCCCN)C(=O)O)[C@@H](C)CC)[C@@H](C)CC` [Peptide 10] (H-KKIEKAIKHIPKKIKLKKALRALARHWK-OH), the figures for the MIC in experiment [3] (setting [6]), in experiment [1] (setting [4]) and in experiment [2] (setting [5]) were 80, 0.01 ng/mL (≈ 0.00296 nM) and 7.5, respectively.
Take Cecropin A [reference compound]: the MCIC in experiment [3] (A. flavus), in experiment [1] and in experiment [2] (F. moniliforme) was over 80 µg/mL each time. Further, the MIC in experiment [3] (setting [6]) was found to be 80; in experiment [1], 0.06 ng/mL; in experiment [2] (setting [5]), 80.
With “IRALQRAVRHPRAIRRIYRGWKKAIRAGPGVTIGIAHAKSQLW [Peptide 6]”, the MIC in experiment [3] (setting [6]) amounted to 80; in experiment [1] (setting [4]) it was 0.01 ng/mL; in experiment [2] (setting [5]), 15.
For Mastoparan [reference compound], the MCIC is 40 µg/mL in experiment [3] (A. flavus), 10 µg/mL in experiment [1] and 10 µg/mL in experiment [2] (F. moniliforme). The MIC in experiment [3] (setting [6]) came to 20; in experiment [1] it was 0.005 ng/mL; in experiment [2] (setting [5]), 2.5.
